One series concerns the target T1, M1 muscarinic receptors (Homo sapiens, UniProt P11229).
T1 construct: expressed in transfected cells; host or cells: A9 L cells
T1 sequence (P11229 1-460): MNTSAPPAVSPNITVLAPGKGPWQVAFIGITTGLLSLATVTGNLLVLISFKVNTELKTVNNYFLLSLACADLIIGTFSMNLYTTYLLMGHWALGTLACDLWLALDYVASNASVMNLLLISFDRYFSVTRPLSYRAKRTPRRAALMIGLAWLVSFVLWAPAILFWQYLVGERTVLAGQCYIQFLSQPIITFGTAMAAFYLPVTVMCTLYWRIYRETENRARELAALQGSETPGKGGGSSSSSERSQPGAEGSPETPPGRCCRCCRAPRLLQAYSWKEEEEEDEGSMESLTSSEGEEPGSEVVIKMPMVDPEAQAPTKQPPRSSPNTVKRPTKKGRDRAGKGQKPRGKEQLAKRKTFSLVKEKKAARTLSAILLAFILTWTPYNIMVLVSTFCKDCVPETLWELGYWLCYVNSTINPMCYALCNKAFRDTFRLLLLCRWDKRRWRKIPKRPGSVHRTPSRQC
In words: Muscarinic receptor binding at M1 receptors. The settings on record: for affinity for muscarinic receptors: as compared to the parent compound xanomeline; for Ki: Table 3. From the text: (§1) The compounds of Formula III incorporate hydrogen bonding elements as ester isosteres (i.e., alcohols, […], 1,2,5-thiadiazoles) at the end of an alkyl or alkyloxy linking group as shown below. The compounds lack a second tetrahydropyridine moiety.

Series [1] deals with T2, M1 muscarinic receptors expressed in A9 L cells (Homo sapiens, UniProt P11229).
T2 construct: expressed in transfected cells; host or cells: A9 L cells
T2 sequence (P11229 1-460): T1 sequence (P11229 1-460)
The experiment in a line: Phosphoinositide (PI) metabolism at M1 muscarinic receptors expressed in A9 L cells. The format is cell-based. The settings on record: for EC50 / Phosphoinositide metabolism Smax: A9 L cells, Table 3.
Text: as §1

The record followed here is patent US6376675B2, “Muscarinic receptor agonists” (The University of Toledo, priority 1999, dated 2002).

Where a name gives a salt, the structure may show the parent alone.

The molecule `CN1CCC=C(c2nsnc2OCCCCCCCCCCCCO)C1` (as salt: hydrochloride) [CDD-0297-A, 12-[3-(1-Methyl-1,2,5,6-tetrahydropyrid-3-yl)-1,2,5-thiadiazol-4-yloxy]-1-dodecanolhydrochloride] came in with a melting point of 97 to 98 °C.

For `CC(=O)OCCCCCCCCCCCCOc1nsnc1C1=CCCN(C)C1` (as salt: hydrochloride) [CDD-0299-A, 12-[3-(1-Methyl-1,2,5,6-tetrahydropyrid-3-yl)-1,2,5-thiadiazol-4-yloxy]-1-dodecyl acetate hydrochloride], the melting point lay within 85 to 86 °C.

`CCOCCOCCOCCOCCOc1nsnc1C1=CCCN(C)C1` (as salt: hydrochloride) [CDD-0301-A, Tetra(ethylene glycol) ethyl [3-1-methyl-1,2,5,6-tetrahydropyrid-3-yl)-1,2,5-thiadiazol-4-yl] ether hydrochloride] gave a melting point of 64.5 to 66 °C.

In turn, `CC(=O)OCCOCCOCCOCCOc1nsnc1C1=CCCN(C)C1` (as salt: hydrochloride) [CDD-0303-A, Tetra(ethylene glycol) [3-(1-methyl-1,2,5,6-tetrahydropyrid-3-yl)-1,2,5-thiadiazol-4-yl] ether acetate hydrochloride] yielded a melting point of 55 to 55.5 °C.

Take `CN1CCC=C(c2nsnc2OCCCCCCCCCCCCOc2nsnc2C2=CCCN(C)C2)C1` [(CH2)12, 1,12-bis-[3-(1-methyl-1,2,5,6-tetrahydropyrid-3-yl)-1,2,5-thiadiazol-4-yloxy]-dodecane]: on M1 muscarinic receptors, the “affinity for muscarinic receptors” value is “very high affinity”.

In the case of `CN1CCC=C(c2nsnc2OCCOCCOCCOCCOc2nsnc2C2=CCCN(C)C2)C1` [(CH2CH2)4O3, 2,2′-bis-{[3-(1-methyl-1,2,5,6-tetrahydropyrid-3-yl)-1,2,5-thiadiazol-4-yloxy]ethyloxy}-diethyl ether], on M1 muscarinic receptors, the “affinity for muscarinic receptors” value is reported as “very high affinity”. The same molecule gave an Smax in series [1] (PI metabolism, full dose-response curves, Table 2) of 250 ± 36%.

Turning to `CN1CCC=C(c2nsnc2OCCCCCCCCCCCCO)C1` [CDD-0297-A, 12-[3-(1-Methyl-1,2,5,6-tetrahydropyrid-3-yl)-1,2,5-thiadiazol-4-yloxy]-1-dodecanolhydrochloride], the inhibition constant (Ki) at M1 muscarinic receptors is 16 ± 3.1 nM. Also, in series [1], a half-maximal effect (EC50) was put at 2600 nM and the “Phosphoinositide metabolism Smax” value stood at 250 ± 28%.

Turning to `CC(=O)OCCCCCCCCCCCCOc1nsnc1C1=CCCN(C)C1` [CDD-0299-A, 12-[3-(1-Methyl-1,2,5,6-tetrahydropyrid-3-yl)-1,2,5-thiadiazol-4-yloxy]-1-dodecyl acetate hydrochloride], on M1 muscarinic receptors, the Ki was 16 ± 13 nM. Besides, in series [1], the midpoint of the response, the EC50, lay at 3400 nM and the “Phosphoinositide metabolism Smax” value is 280 ± 17%.

Consider `CN1CCC=C(c2nsnc2OCCOCCOCCOCCO)C1` [CDD-0300-A, Tetra(ethylene glycol) mono[3-(1-methyl-1,2,5,6-tetrahydropyrid-3-yl)-1,2,5-thiadiazol-4-yl] ether hydrochloride], for which the Ki at M1 muscarinic receptors is 150 ± 42 nM. Besides, in series [1], a half-maximal response (EC50) required 710 nM and the “Phosphoinositide metabolism Smax” value is given as 240 ± 64%.

`CCOCCOCCOCCOCCOc1nsnc1C1=CCCN(C)C1` [CDD-0301-A, Tetra(ethylene glycol) ethyl [3-1-methyl-1,2,5,6-tetrahydropyrid-3-yl)-1,2,5-thiadiazol-4-yl] ether hydrochloride]: the Ki at M1 muscarinic receptors is 570 ± 220 nM. Further, in series [1], the EC50 was 29000 nM and the “Phosphoinositide metabolism Smax” value was 420 ± 220%.

Regarding `CC(=O)OCCOCCOCCOCCOc1nsnc1C1=CCCN(C)C1` [CDD-0303-A, Tetra(ethylene glycol) [3-(1-methyl-1,2,5,6-tetrahydropyrid-3-yl)-1,2,5-thiadiazol-4-yl] ether acetate hydrochloride], affinity on M1 muscarinic receptors was put at a Ki of 280 ± 130 nM.

Consider `COc1nsnc1OCCOCCOCCOCCOc1nsnc1C1=CCCN(C)C1` [CDD-0304-A, Tetra(ethyleneglycol)(4-methoxy-1,2,5-thiadiazol-3-yl)[3-(1-methyl-1,2,5,6-tetrahydropyrid-3-yl)-1,2,5-thiazdiazol-4-yl] ether hydrochloride], for which affinity at M1 muscarinic receptors was put at a Ki of 38 ± 23 nM. Moreover, in series [1], the EC50 was 64 nM and the “Phosphoinositide metabolism Smax” value stood at 600 ± 56%.
